Values of other authors in US10086032B2, “Method for preparing a Camellia nitidissima Chi lipid-lowering and hypoglycemic agent” (Shenzhen Violin Technology Co., Ltd., priority 2014, dated 2018).

System: model rat with hyperlipidemia
Details: high dose group; lovastatin 0.01 g/kg; 43 days intragastric gavage

CC[C@H](C)C(=O)O[C@H]1C[C@@H](C)C=C2C=C[C@H](C)[C@H](CC[C@@H]3C[C@@H](O)CC(=O)O3)[C@H]21 [lovastatin]
HDL-C content of serum: enhance HDL-C content of serum in model rat with hyperlipidemia
